According to PMC11249646, “Small-Molecule Disruptors of the Interaction between Calcium- and Integrin-Binding Protein 1 and Integrin αIIbβ3 as Novel Antiplatelet Agents” (ACS Pharmacology & Translational Science, 2024):
Read-outs that look alike come from different tables or passages of the source.

Molecular target: T1, CIB1 and αIIb interaction (CIB1-GST : F-αIIb peptide) (Homo sapiens, UniProt Q99828)
T1 construct: made in house; host or cells: BL-21 plus RIL cells (E. coli)
T1 sequence (Q99828 1-191): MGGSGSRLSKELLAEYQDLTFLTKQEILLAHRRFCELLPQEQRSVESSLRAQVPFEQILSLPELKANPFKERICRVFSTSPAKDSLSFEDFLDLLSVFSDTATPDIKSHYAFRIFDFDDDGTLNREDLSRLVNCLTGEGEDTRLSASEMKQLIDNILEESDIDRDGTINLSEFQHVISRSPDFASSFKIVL
Experiment: FP assay, 1536-well qHTS format (primary and confirmatory screen)
Assay type: binding
Settings: for Curve Class: negative sign = inhibitory curve

[1] = qHTS primary screen hits, Table S2, negative = inhibition
[2] = qHTS primary screen hits, Table S2
[3] = qHTS primary screen hits, Table S2, read-out: IC50
[4] = qHTS primary screen hits, Table S2, several classes where COUNT > 1
[5] = qHTS FP screen hits, Table S2, negative = inhibition
[6] = qHTS FP screen hits, Table S2, read-out: IC50
[7] = qHTS primary screen of LOPAC/NPACT libraries, negative = inhibition
[8] = qHTS primary screen of LOPAC/NPACT libraries
[9] = qHTS primary screen of LOPAC/NPACT libraries, read-out: IC50

SMILES | Efficacy (%) [1] [%] | IC50 [3] [µM] | Curve Class [4] | Curve Class [8] | IC50 [9] [µM] | further results
Cc1ccc(N)cc1O [NCGC00090702-02] | -38 | 126 |  |  |  | Curve Class [2]: -2.2
Oc1cccc2cccnc12 [NCGC00090708-05] |  |  |  |  |  | Efficacy (%): -29%; IC50 (IC50 [μM]): 117 µM
CC/C(=C(/CC)c1ccc(O)cc1)c1ccc(O)cc1 [NCGC00090749-11] | -29 | 42.9 | -2.4 |  |  | 
Nc1ccccc1N [NCGC00090885-03] | -77 | 113 |  |  |  | 
O=C(O)c1cc(/N=N/c2ccc(S(=O)(=O)Nc3ccccn3)cc2)ccc1O [NCGC00090903-11] |  |  |  |  |  | Efficacy (%) [5]: -43%; Curve Class (qHTS FP screen hits, Table S2, one class per curve where COUNT > 1): -2.2; IC50 [6]: 25.1 µM
CCCCCCCCCCCC[N+](C)(C)CCOc1ccccc1.[Br-] [NCGC00091010-03] | -55 | 89.1 |  |  |  | Curve Class [2]: -3
CCCCCCCCCCCCCCCC[n+]1ccccc1.[Br-] [NCGC00091023-06] | -31 | 89.1 | -2.4 |  |  | 
COc1cc([C@H]2Oc3cc([C@H]4Oc5cc(O)cc(O)c5C(=O)[C@@H]4O)ccc3O[C@@H]2CO)ccc1O [NCGC00091057-06] | -74 | 28.5 |  |  |  | Curve Class [2]: -2.2
CN(C)c1ccc(C(=C2C=CC(=[N+](C)C)C=C2)c2ccc(N(C)C)cc2)cc1.[Cl-] [NCGC00091112-09] | -60 | 56.2 |  |  |  | Curve Class [2]: -2.4
Nc1cccc2c(N)cccc12 [NCGC00091284-03] | -33 | 113 |  |  |  | 
Cc1cc2nc3c(=O)[nH]c(=O)nc-3n(C[C@H](O)[C@H](O)[C@H](O)CO)c2cc1C [NCGC00091288-05] | -134 | 4 |  |  |  | 
CC[n+]1c(-c2ccccc2)c2cc(N)ccc2c2ccc(N)cc21.[Br-] [NCGC00091387-08] | -61 | 56.2 | -2.4 |  |  | 
CCOC(=O)c1c(NC(=O)CN2CCCCC2)sc2c1CCN(C(=O)OCC)C2.O=C(O)C(F)(F)F [NCGC00092717-02] | -31 | 89.1 |  |  |  | Curve Class [2]: -2.4
O=C(N[C@@H](Cc1ccccc1)C(=O)CCl)OCc1ccccc1 [NCGC00093742-04] |  |  |  | -1.2 | 10 | Efficacy (%) [7]: -19%
CC(=O)[C@]1(O)Cc2c(O)c3c(c(O)c2[C@@H](O[C@H]2C[C@H](N)[C@H](O)[C@H](C)O2)C1)C(=O)c1ccccc1C3=O [NCGC00093976-06] | -86 | 19.1 |  |  |  | 
Nc1ccc(-c2nc3ccc(-c4nc5cc(N)ccc5[nH]4)cc3[nH]2)cc1 [NCGC00094031-06] | -33 | 39.8 | -2.2 |  |  | 
C[C@@]1(C2CCCC2)Cc2cc(OCC(=O)O)c(Cl)c(Cl)c2C1=O [NCGC00094034-06] |  |  |  | -2.2 | 25.1 | Efficacy (%) [7]: -28%
N[C@@H](CCC(=O)N[C@H](CSN=O)C(=O)NCC(=O)O)C(=O)O [NCGC00094150-03] |  |  |  | -1.2 | 12.6 | Efficacy (%) [7]: -13%
Oc1cc(O)cc(/C=C/c2ccc(O)c(O)c2)c1 [NCGC00094226-07] |  |  |  | -1.2 | 3.2 | 
C=C1C(=O)O[C@@H]2[C@H]3O[C@]3(C)CC/C=C(/C)CC[C@@H]12 [NCGC00094250-05] |  |  |  | -1.2 | 10 | Efficacy (%) [7]: -19%
C[C@H](O)C(=O)C1=Nc2c(nc(N)[nH]c2=O)NC1 [NCGC00094391-03] | -40 | 35.5 |  |  |  | Curve Class [2]: -2.2
N#CC(=C(\N)Sc1ccccc1N)/C(C#N)=C(/N)Sc1ccccc1N [NCGC00094462-03] |  |  |  | -3 | 20 | Efficacy (%) [7]: -18%
Oc1c(Br)cc(Br)c2cccnc12 [NCGC00094815-05] | -41 |  | -2.2 |  |  | 
S=P(N1CC1)(N1CC1)N1CC1 [NCGC00095042-06] | -44 |  |  |  |  | IC50 (IC50 [μM]): 126 µM; Curve Class [2]: -2.2
Oc1ccc(Cl)c2cccnc12 [NCGC00095303-04] | -37 | 56.2 | -2.4 |  |  | 
Cc1c(Cl)cccc1-n1c(CCC(=O)O)ccc1-c1cccs1 [NCGC00100415-03] | -50 | 50.1 | -2.2 |  |  | 
Cc1cc(Cl)ccc1-n1c(CCC(=O)O)ccc1-c1cccs1 [NCGC00100435-03] | -33 | 50.1 |  |  |  | Curve Class [2]: -2.2

SMILES | Efficacy (%) [1] [%] | IC50 [3] [µM] | Curve Class [4] | Curve Class [8] | IC50 [9] [µM] | further results
COc1ccc(Nc2cc(C)nc(-n3nc(C)cc3C)n2)cc1Cl.O=C(O)C(F)(F)F [NCGC00134126-02] | -30 | 50.1 | -2.4 |  |  | 
NC[C@H](O)c1ccc(O)c(O)c1 [NCGC00159406-07] | -18 | 21.3 |  |  |  | 
Oc1cc(Cl)ccc1Oc1ccc(Cl)cc1Cl [NCGC00159417-06] | -22 | 100 |  |  |  | Curve Class [2]: -2.4
CC(C)=CCOc1ccc(/C=C/C(=O)c2ccc(OCC=C(C)C)cc2OCC(=O)O)cc1 [NCGC00159481-03] | -94 | 100 |  |  |  | Curve Class [2]: -3
COCCCOc1ccnc(C[S+]([O-])c2nc3ccccc3[n-]2)c1C.[Na+] (centres unmarked) [NCGC00159518-05] | -54 | 42.2 |  |  |  | 
O=C(CS)Nc1ccccc1 [NCGC00160366-02] | -44 | 89.1 |  |  |  | Curve Class [2]: -3
CC[PH](CC)(CC)[Au][S][C@@H]1O[C@H](COC(C)=O)[C@@H](OC(C)=O)[C@H](OC(C)=O)[C@H]1OC(C)=O [NCGC00160391-05] |  |  |  |  |  | Efficacy (%) [5]: -30%; IC50 [6]: 17.1 µM
CN1CCN(CCC(=O)N2c3ccccc3Sc3ccc(C(F)(F)F)cc32)CC1.Cl [NCGC00160483-02] | -60 | 56.2 | -2.4 |  |  | 
COC1=C(OC)C(=O)C(CCCCCCCCCCO)=C(C)C1=O [NCGC00160514-02] | -26 | 50.1 | -2.4 |  |  | 
O=C(Nc1ccc(Oc2ccc(Cl)cc2)c(Cl)c1)c1cc(I)cc(I)c1O [NCGC00160556-02] | -27 | 89.1 |  |  |  | Curve Class [2]: -2.4
CSc1ccc(/C=C2/C(C)=C(CC(=O)O)c3cc(F)ccc32)cc1 [NCGC00161601-02] | -32 | 79.4 | -2.4 |  |  | 
Cc1ccc(S(=O)(=O)Nc2cc(S(=O)(=O)c3ccc(C)cc3)c(O)c3cccnc23)cc1 [NCGC00161699-01] | -29 | 50.1 | -2.4 |  |  | 
O=S(=O)(Nc1cc(O)cc2cccnc12)c1ccc(Cl)s1 [NCGC00161701-01] | -37 | 50.1 | -2.4 |  |  | 
COc1cc(NS(=O)(=O)c2ccc([N+](=O)[O-])cc2)c2ncccc2c1 [NCGC00161705-01] | -40 | 56.2 | -2.4 |  |  | 
COc1cc(NS(=O)(=O)c2cccc([N+](=O)[O-])c2)c2ncccc2c1 [NCGC00161706-01] | -35 | 56.2 | -2.4 |  |  | 
O=C(O)c1ccc(S(=O)(=O)N[C@@H](Cc2ccc(O)cc2)C(=O)O)cc1 [NCGC00161808-01] | -21 | 44.7 | -2.4 |  |  | 
CN(C)CC/C=C1/c2ccccc2Sc2cc(Cl)ccc21.Cl [NCGC00162079-02] |  |  |  | -2.4 | 70.8 | Efficacy (%) [7]: -13%
Cc1cc(Cn2cnc3c2C[C@@H](C(=O)O)N(C(=O)C(c2ccccc2)c2ccccc2)C3)ccc1N [NCGC00162092-02] |  |  |  | -1.4 | 10 | Efficacy (%) [7]: -10%
C=CCc1ccccc1OCC(O)CN[C@]1(C)CCC[C@H](C(C)(C)NC(=O)CBr)C1 (some centres unmarked) [NCGC00162095-02] |  |  |  | -2.4 | 56.2 | Efficacy (%) [7]: -35%
NC(=O)c1cc[n+](CC2=C(C(=O)O)N3C(=O)[C@@H](NC(=O)[C@@H](c4ccccc4)S(=O)(=O)[O-])[C@H]3SC2)cc1 [NCGC00162106-03] |  |  |  | -2.2 | 50.1 | Efficacy (%) [7]: -20%
CO/N=C(\C(=O)N[C@@H]1C(=O)N2C(C(=O)O)=C(CSc3nc(=O)c(O)nn3C)CSC12)c1csc(N)n1 (some centres unmarked) [NCGC00162111-02] |  |  |  | -1.2 | 20 | Efficacy (%) [7]: -18%
CC(C)c1cc(F)cc2c1C[C@](CCN(C)CCCc1nc3ccccc3[nH]1)(OC(=O)C1CC1)CC2 [NCGC00162214-02] |  |  |  | -2.2 | 56.2 | Efficacy (%) [7]: -30%
OCC1O[C@H]([S-])[C@H](O)[C@@H](O)[C@@H]1O.[Au+] (some centres unmarked) [NCGC00162223-02] |  |  |  | -3 | 89.1 | Efficacy (%) [7]: -26%
CCCCCN(CCCCC)C(=O)C(CCC(=O)O)NC(=O)c1ccc(Cl)c(Cl)c1 (centres unmarked) [NCGC00162232-03] |  |  |  | -2.2 | 44.7 | Efficacy (%) [7]: -19%
CC(C)c1ccc2c(c1)c(SC(C)(C)C)c(CC(C)(C)C(=O)O)n2Cc1ccc(Cl)cc1 [NCGC00162249-03] |  |  |  | -1.4 | 15.8 | Efficacy (%) [7]: -29%
CCn1cc(C(=O)O)c(=O)c2ccc(C)nc21 [NCGC00162271-02] |  |  |  | -1.4 | 8.9 | Efficacy (%) [7]: -10%
